Results reported in patent publication EP0477700A1, “6'-C-alkyl- or alkynyl-neplanocin A, and its preparation process and use” (priority 1990, dated 1992).
In brackets after ≈: the same amount, converted by molar mass. Like-named read-outs stand apart in the source and are kept apart here.

Assays:
[1] = target: T1, adenosine deaminase (Bos taurus, UniProt P56658); assay: Adenosine deaminase resistance (remaining compound measured by HPLC); conditions: for Percent remainder 0 minute / Percent remainder 30 minutes: 5 mM compound in 0.05 M Tris-HCl buffer (pH 7.2), adenosine deaminase (calf intestine), 25°C
T1 sequence (P56658 1-363): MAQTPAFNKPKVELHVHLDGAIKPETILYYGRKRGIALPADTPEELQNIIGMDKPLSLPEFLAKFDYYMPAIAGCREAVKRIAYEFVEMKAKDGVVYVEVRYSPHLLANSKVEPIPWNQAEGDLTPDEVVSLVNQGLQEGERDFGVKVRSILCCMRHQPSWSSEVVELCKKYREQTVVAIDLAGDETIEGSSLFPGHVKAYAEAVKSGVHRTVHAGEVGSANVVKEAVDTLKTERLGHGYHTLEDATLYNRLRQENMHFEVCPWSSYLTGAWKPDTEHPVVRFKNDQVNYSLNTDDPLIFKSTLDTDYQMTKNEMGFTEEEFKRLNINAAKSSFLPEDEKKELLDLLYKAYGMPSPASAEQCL

[2] = system: Vesicular Stomatitis Virus (VSV); assay: microbe, parasite or virus in culture; assay type: cell-based; conditions: 36 h
[3] = system: Vero cells; assay: Cytotoxicity in Vero cells (minimum cytotoxicity concentration)
[4] = system: parainfulenza virus; assay: Antiviral activity against parainfluenza virus in Vero cells (minimum virus growth inhibitory concentration); assay type: cell-based

Q: With `CC(O)C1=C[C@@H](n2cnc3c(N)ncnc32)[C@H](O)[C@@H]1O` (stereo partly shown) [6'-C-Methylneplanocin A, 6'-C-methylneplanocin A] as the compound, how does the “Percent remainder 0 minute” value [1] read?
A: 100%

Q: And the “Percent remainder 30 minutes” value [1]?
A: 92%

Q: What about the MIC [2] of the same compound?
A: 0.1 µg/mL (≈ 0.361 µM)

Q: What about the MCC [3] of the same compound?
A: ≧400 µg/mℓ

Q: What about the MIC ([4]; minimum virus growth inhibitory concentration, parainfulenza virus, Vero cells, read-out: MIC) of the same compound?
A: 0.1 µg/mL (≈ 0.361 µM)

Q: With `C#CC(O)C1=C[C@@H](n2cnc3c(N)ncnc32)[C@H](O)[C@@H]1O` (stereo partly shown) [6'-C-Ethynylneplanocin A, 6'-C-ethynylneplanocin A] as the compound, how does the “Percent remainder 0 minute” value [1] read?
A: 100%

Q: What about the “Percent remainder 30 minutes” value [1] of the same compound?
A: 96%

Q: And the MIC [2]?
A: 0.1 µg/mL (≈ 0.348 µM)

Q: Which “Percent remainder 0 minute” value [1] does the source give for `Nc1ncnc2c1ncn2[C@@H]1C=C(CO)[C@@H](O)[C@H]1O` [Neplanocin A] here?
A: 100%

Q: What about the “Percent remainder 30 minutes” value [1] of the same compound?
A: 0%

Q: What about the inactivated ([1]; summary of the adenosine deaminase resistance test (conditions of Table 3)) of the same compound?
A: 100%

Q: What about the MIC [2] of the same compound?
A: 3.9 µg/mL (≈ 14.8 µM)

Q: What about the MCC [3] of the same compound?
A: ≧40 µg/mℓ

Q: What about the MIC [4] of the same compound?
A: 0.1 µg/mL (≈ 0.38 µM)

Q: `CCC(O)C1=C[C@@H](n2cnc3c(N)ncnc32)[C@H](O)[C@@H]1O` (stereo partly shown) [6'-C-Ethylneplanocin A, 6'-C-ethylneplanocin A] was tested. Which “Percent remainder 0 minute” value [1] did it give?
A: 100%

Q: What about the “Percent remainder 30 minutes” value [1] of the same compound?
A: 94%
